Source: patent publication US20220257764A1, “USE OF DIKETONE COMPOUND IN PHOTODYNAMIC THERAPY OR DIAGNOSIS” (BEIJING WHOLESOMETECH CO., LTD., priority 2019, published 2022)

Columns and labels:
[1] = test system: B16 melanoma cell; assay: MTT toxicity to tumor cells, under light and in the dark; assay type: cell-based; settings: Mus musculus, under light, 450-480 nm laser, 110 mW/cm^2, 900 s
Experimental: (§1) In this experimental example, the toxicity of the compound to tumor cells was tested by an MTT method including the following specific steps.
(§2) (1) Logarithmic cells were collected, the concentration of a cell suspension was adjusted, the cell suspension was added to a cell culture plate in a dose of 100 μL per well, and the cells were then added to a cell culture plate so that the density of the cells to be tested was adjusted to 1000-10000 wells (edge wells were filled with sterile PBS).
(§3) (2) The cells were incubated at 37° C. in the presence of 5% CO2 until the cells in a single layer covered the bottom of each well (96-well flat-bottom plate), and a drug in concentration gradients was added. Generally, the drug in 5 to 7 gradients was added in a dose of 100 μL per well, and 3 to 5 multi-wells were set.
(§4) (3) The cells were randomly divided into treated groups under light and treated groups in the dark, incubated at 37° C. in the presence of 5% CO2 for 16 h to 48 h, and observed with an inverted microscope.
(§5) (4) The cells were irradiated for 900 s with a laser having a wavelength of 450 nm to 480 nm (at an intensity of 110 mW/cm^2), and the final light dose was about 100 J/cm^2. After light irradiation, the cells were washed with PBS.
(§6) (5) An MTT solution (5 mg/ml, 0.5% MTT) was added in a dose of 20 μL per well to further incubate the cells for 4 h. If the drug could react with the MTT, centrifuging was carried out first, and then the culture solution was discarded and the cells were carefully washed twice or three times with PBS, and then the culture solution containing MTT was added.
(§7) (6) The culture was terminated and the culture solution in the wells was carefully removed.
(§8) (7) Dimethyl sulfoxide was added in a dose of 150 μL per well, and the plate was then shaken on a shaker at a low speed for 10 min to fully dissolve crystals. The absorbance at OD 490 nm of each well was measured with enzyme-linked immunoassay.
(§9) (8) Zero adjustment wells (medium, MTT, dimethyl sulfoxide) and control wells (cells, dissolving media of the same concentration, culture solution, MTT, dimethyl sulfoxide) were set at the same time.

[2] = test system: Hela cells; assay: as above; assay type: cell-based; settings: Homo sapiens, under light, 450-480 nm laser, 110 mW/cm^2, 900 s
Experimental: as §1, §2, §3, §4, §5, §6, §7, §8, §9

[3] = test system: SW480 colon cancer cells; assay: as above; assay type: cell-based; settings: Homo sapiens, SW480; under light, 450-480 nm laser, 110 mW/cm^2, 900 s
Experimental: as §1, §2, §3, §4, §5, §6, §7, §8, §9

[4] = test system: 4T1 cells (breast cancer cells in mice); assay: Photodynamic therapy of tumors in mice (tumor size, tumor weight, B cells in tumor tissue); assay type: in vivo, BALB/C mice; settings: 14 days after treatment
Experimental: 1. Photodynamic therapy experiments on tumors were carried out by using BJMU-204 as a photosensitizer and BALB/C mice as experimental animals. Modeling mode: BALB/C mice were divided into 5 groups in total, 11-12 mice in each group. 4T1 cells (breast cancer cells in mice) were resuscitated and subcultured to a better cell state for tumorigenesis inoculation. BALB/C mice were locally depilated and disinfected, and tumor cells were injected into the mouse mammary fat pad in situ. Tumors were formed within 7 to 10 days. […] [table] 2. Mice in each experimental group were subjected to blood collection for serum separation and necropsy, and tumors were taken out and measured to obtain their wet weights; tumor tissues were fixed, pathological examinations were performed, and H. E. staining was used to observe the changes of tumors of the mice under an optical microscope; blood routine indicators (including white blood cell count (WBC), red blood cell count (RBC), lymphocyte count (LY), platelet count (PLT) and many other blood routine indicators) and blood biochemical indicators (including routine blood biochemical indicators) were tested and analyzed in the Laboratory of Peking University Third Hospital. 3. Tumors were taken out of mice in each experimental group, a piece of tumor tissue about 1 cm*1 cm*0.5 cm in size was cut up and placed in a 10 ml EP tube. 5 ml of pancreatin was added for digestion. 30 min later, the digestion was ended. The digestion solution and the tumor tissue were sieved through a single cell sieve to obtain a tumor tissue single-cell suspension. B220 antibody (for flow cytometry) was added to the suspension and the resulting solution was stained with a PI staining solution; 30 min later, the staining was ended and the staining solution was removed; next, re-suspending was carried out with a PBS solution for test with a flow cytometry.

[5] = Phototoxicity to healthy mice (body weight, blood routine, blood biochemistry); assay type: in vivo, BALB/C mice
Experimental: BALB/C mice were divided into 2 groups in total, 9 mice in each group. The mice were fed adaptively for 2 days. Mice in a control group were fed normally, and mice in an experimental group were given photodynamic therapy by subcutaneous injection every other day under the irradiation of laser with a wavelength of 450 nm to 480 nm at a light intensity of 200 mW/cm^2.
Administration mode: as shown in the table below, the photosensitizer was dissolved in physiological saline and subcutaneously injected in mice in the experimental group, and the group receiving photodynamic therapy was irradiated with light immediately after the injection.
2. The mice in the experimental group and the control group were weighed every other day. At the end of the experiment, the mice were subjected to blood collection for serum separation and necropsy, and blood routine indicators (including WBC, RBC, LY, PLT and many other blood routine indicators) and blood biochemical indicators (including routine blood biochemical indicators) were tested and analyzed in the Laboratory of Peking University Third Hospital.

[6] = 3% subcutaneous injection + light 10 min, after 2 weeks

## CC(=O)C(C)=O [BJMU-204]
[1]
  IC50: 500 ± 30 nM
[2]
  IC50: 600 ± 20 nM
[3]
  IC50: 600 ± 50 nM
[4]; 3% (p<0.001) and 0.5% (p<0.01) intratumoral + light vs control
  number of B cells in tumor tissues: increases significantly
[4]; 3% and 0.5% intratumoral + light, both p<0.001 vs control, better at high concentration
  weight changes of tumor tissues: obvious growth inhibition effect
[4]; 3% and 0.5% intratumoral + light, both p<0.001 vs control, more prominent at high concentration
  size changes of tumor tissues: controlled and decreased
[5]; 3% subcutaneous + light, 14 days after treatment
  body weight, experimental group vs control group: no significant difference
[5]; [6]
  Hematocrit (HCT): 45.22 ± 2.83
  Hemoglobin (HGB): 160.22 ± 12.07
  Mean corpuscular hemoglobin (MCH): 16.18 ± 0.34
  Mean corpuscular hemoglobin concentration (MCHC): 354.11 ± 8.19
  Mean corpuscular volume (MCV): 45.71 ± 0.6
  Mean platelet volume (MPV): 6.23 ± 0.37
  Platelet count (PLT): 290 ± 50.23
  Platelet distribution width (PDW): 14.84 ± 0.6
  Plateletocrit (PCT): 0.17 ± 0.03
  Red blood cell volume distribution width (RDW): 12.67 ± 0.54
  Red blood count (RBC): 9.9 ± 0.72
  White blood cell count (WBC): 6.56 ± 0.54
[5]; continuous treatment for 14 days at high concentration therapeutic doses
  liver, kidney and blood toxicity: will not cause liver, kidney and blood toxicity
